According to paper PMC10824102, “Identification of small molecule inhibitors of G3BP-driven stress granule formation” (The Journal of Cell Biology, 2024):

Tests used:
U2OS cells = assay: Cytotoxicity assay (CellTiter-Glo, ATP levels); assay type: cell-based; settings: 24 h, ATP levels by luciferase signal
Procedure: U2OS (HTB-96), HEK293T (CRL-3216), and HeLa (CCL-2) cells were originally purchased from ATCC and periodically authenticated by short tandem repeat (STR) profiling. Cells were grown in Dulbecco’s modified Eagle’s medium (DMEM) supplemented with 10% fetal bovine serum (FBS), 1% penicillin/streptomycin, and 1% L-glutamine. Cells were counted using ADAM-CellT (NanoEntek), plated, and transfected using either Lipofectamine 3000 (L3000008; Thermo Fisher Scientific) or Viafect (E4981; Promega) for transient overexpression according to the manufacturer’s instructions. Cytotoxicity was assayed using CellTiter-Glo 2.0 reagent (Promega) according to the manufacturer’s instructions.

[1] = target: T1, co-condensation of RNA, G3BP1, and caprin 1 (Homo sapiens, UniProt Q13283); assay: In vitro LLPS, three-component system (G3BP1, caprin 1, RNA); assay type: biochemical; settings: for IC50, inhibition of G3BP1-GFP in vitro phase separation / LogIC50, inhibition of G3BP1-GFP in vitro phase separation / IC50: 1.5 μM G3BP1, 1.5 μM caprin 1, 20 ng/μl total RNA; for IC50: read-out: IC50, inhibition of G3BP1-GFP in vitro phase separation; for co-condensation of caprin 1, G3BP1, and RNA: result in words; for HillSlope, inhibition of G3BP1-GFP in vitro phase separation: slope at the steepest part of the curve; for Bottom (lowest value of curve), percent inhibition of in vitro phase separation / Top (highest value of curve), percent inhibition of in vitro phase separation: three-component system
T1 construct: made in house; host or cells: E. coli BL21 (DE3)
Procedure: LLPS assays were performed in 30 μl total volume at 25°C at pH 7.4 in buffer containing 37 mM Tris, pH 7.5, 116 mM NaCl, 0.33% NP-40, 2.6% glycerol, 0.5 mM DTT with 20 ng/μl total cellular RNA from U2OS cells and 1.425 μM G3BP1, 0.075 μM FLAG-GFP-G3BP1, and 1.5 μM caprin 1. Reactions were initiated by adding G3BP1/caprin 1 protein mix to cellular RNA, followed by 3 min of shaking at 450 rpm and then incubation for 70 min in the dark. For condensates formed with G3BP1 and RNA, 20 μM purified G3BP1 and 100 ng of total cellular RNA from HEK293T cells were added to a buffer consisting of 100 mM NaCl and 16.7 mM HEPES (pH 7.5) in the presence of the indicated dose of G3Ib or vehicle control.

[2] = system: stress granule formation in HeLa cells stably expressing G3BP1-GFP; assay: Preincubation, arsenite-induced stress granule formation, live cell imaging in HeLa; assay type: cell-based; settings: Homo sapiens, 20 min pretreatment, 250 μM NaAsO2, read-out: inhibition of stress granule formation compared with inactive enantiomer
Procedure: For preincubation of compounds, U2OS or HeLa cells stably expressing G3BP1-GFP or CRISPR-modified cells expressing TDP-43-GFP/G3BP1-GFP were seeded into eight-well Lab-Tek chambered cover glass (Nunc). At least 20 min prior to the experiment, 1 ml FluoroBrite DMEM media (Gibco) supplemented with 10% FBS and 4 mM L-glutamine was combined with 0.1% DMSO or G3I compound (5, 10, or 50 μM). This solution was vortexed for 5 s, added to the cells at 250 μl per well, and left to incubate on the microscope for 20 min. Conditions were maintained at 37°C and 5% CO2 using a Bold Line Cage Incubator (Okolab) and an objective heater (Bioptechs). During this incubation time, 5 xy fields were stored per condition, with each field having ∼20–30 cells within it. After the 20-min incubation, 250 μl of 500 μM or 1 mM (2×) sodium arsenite (Sigma-Aldrich) diluted in the FluoroBrite media with an appropriate amount of G3I compound or DMSO was added to the sample. Imaging began immediately after, with images at each xy field being taken every 1 min. For heat shock experiments, U2OS G3BP1-GFP-expressing cells were seeded into a 35-mm glass bottom dish (MatTek). Prior to the experiment, 1.5 ml FluoroBrite DMEM media (Gibco) supplemented with 10% FBS and 4 mM L-glutamine was combined with 0.1% DMSO or 50 μM G3I compound. The sample was incubated on the environmentally controlled microscope for 20 min. […]

T1 sequence (Q13283 whole entry): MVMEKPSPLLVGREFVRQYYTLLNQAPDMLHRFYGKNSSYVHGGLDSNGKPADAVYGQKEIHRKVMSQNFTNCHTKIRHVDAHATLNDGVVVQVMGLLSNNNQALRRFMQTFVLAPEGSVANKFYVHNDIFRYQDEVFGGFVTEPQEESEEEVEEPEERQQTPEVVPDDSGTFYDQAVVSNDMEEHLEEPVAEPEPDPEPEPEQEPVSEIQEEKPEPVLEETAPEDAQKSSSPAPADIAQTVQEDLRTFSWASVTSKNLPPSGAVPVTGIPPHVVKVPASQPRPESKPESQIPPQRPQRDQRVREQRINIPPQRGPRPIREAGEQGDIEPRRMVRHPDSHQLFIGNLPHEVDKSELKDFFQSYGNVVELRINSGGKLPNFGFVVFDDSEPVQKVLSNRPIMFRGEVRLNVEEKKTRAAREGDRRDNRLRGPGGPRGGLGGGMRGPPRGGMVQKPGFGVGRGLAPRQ
T1 sequence (Q13283 whole entry): as above

| SMILES | cell-based toxicity (U2OS cells) | IC50, inhibition of G3BP1-GFP in vitro phase separation [1] | LogIC50, inhibition of G3BP1-GFP in vitro phase separation [1] | LogIC50, inhibition of G3BP1-GFP in vitro phase separation ([1]; listed as G3Ia') | IC50 [1] | co-condensation of caprin 1, G3BP1, and RNA [1] | HillSlope, inhibition of G3BP1-GFP in vitro phase separation [1] | HillSlope, inhibition of G3BP1-GFP in vitro phase separation ([1]; listed as G3Ia') | Bottom (lowest value of curve), percent inhibition of in vitro phase separation [1] | Top (highest value of curve), percent inhibition of in vitro phase separation [1] | inhibition at 50 µM [2] | LogIC50, inhibition of G3BP1-GFP in vitro phase separation ([1]; listed as G3Ib') | HillSlope, inhibition of G3BP1-GFP in vitro phase separation ([1]; listed as G3Ib') |
| --- | --- | --- | --- | --- | --- | --- | --- | --- | --- | --- | --- | --- | --- |
| COCCC(NC(=O)C(C)NC(=O)C(NC(=O)C(NC(=O)C(F)CC(C)(C)C)C(C)(C)O)C(C)c1ccccc1)C(=O)N(C)Cc1ccccc1 (stereo not shown) [G3Ia] | do not appear to induce cellular toxicity or growth phenotypes | Unstable | 0.6508 | Unstable | 4.48 µM | disrupted the co-condensation | 1.354 | Unstable | Unstable | Unstable | ~72% |  |  |
| CC(NC(=O)C(NC(=O)C(NC(=O)CCC(C)(C)C)C(C)(C)O)C(C)c1ccccc1)C(=O)N1CCCC1c1ccccc1 (stereo not shown) [G3Ib] | do not appear to induce cellular toxicity or growth phenotypes | Unstable | 0.5379 |  | 3.45 µM | disrupted the co-condensation | 1.004 |  | 4.401 | 1.518 | ~82% | Unstable | Unstable |
